Data: ChEMBL document CHEMBL4610060, “Orally bioavailable amine-linked macrocyclic inhibitors of factor XIa” (Bioorg Med Chem Lett, 2020)

Legend:
Coagulation factor XI = Coagulation factor XI (Homo sapiens, UniProt P03951); assay: Inhibition of recombinant human activated coagulation factor XI using pyro-Glu-Pro-Arg-pNA as substrate by spectrophotometry
Plasma = assay: Anticoagulant activity in human plasma assessed as EC1.5 of activated partial thromboplastin time by coagulometric analysis; format: functional
[1] = Metabolic stability in human liver microsomes assessed as half life; format: ADME, Microsome
[2] = Permeability across basolateral to apical side in human Caco2 cells; format: ADME, cell-based; conditions: Caco-2, read-out: permeability
[3] = Permeability across apical to basolateral side in human Caco2 cells; format: ADME, cell-based; conditions: Caco-2, read-out: permeability
[4] = Clearance in Sprague-Dawley rat at 0.53 mg/kg, iv or 1.06 mg/kg, po measured upto 24 hrs by LC-MS/MS analysis; format: ADME, organism-based; conditions: in vivo
[5] = Half life in Sprague-Dawley rat at 0.53 mg/kg, iv or 1.06 mg/kg, po measured upto 24 hrs by LC-MS/MS analysis; format: ADME, organism-based; conditions: in vivo
[6] = Volume of distribution at steady state in Sprague-Dawley rat at 0.53 mg/kg, iv or 1.06 mg/kg, po measured upto 24 hrs by LC-MS/MS analysis; format: ADME, organism-based; conditions: in vivo, read-out: Vdss
[7] = Oral bioavailability in Sprague-Dawley rat at 1.06 mg/kg measured upto 24 hrs by LC-MS/MS analysis; format: ADME, organism-based; conditions: in vivo
[8] = AUC in Sprague-Dawley rat at 1.06 mg/kg, po measured upto 24 hrs by LC-MS/MS analysis; format: ADME, organism-based; parameters: time < 24 hr, dose 1.06 mg/kg, route oral; conditions: in vivo
[9] = Protein binding in rat assessed as unbound fraction; format: ADME
[10] = Metabolic stability in rat liver microsomes assessed as half life; format: ADME, Microsome
[11] = Clearance in Sprague-Dawley rat at 0.49 mg/kg, iv or 0.98 mg/kg, po measured upto 24 hrs by LC-MS/MS analysis; format: ADME, organism-based; conditions: in vivo
[12] = Half life in Sprague-Dawley rat at 0.49 mg/kg, iv or 0.98 mg/kg, po measured upto 24 hrs by LC-MS/MS analysis; format: ADME, organism-based; conditions: in vivo
[13] = Volume of distribution at steady state in Sprague-Dawley rat at 0.49 mg/kg, iv or 0.98 mg/kg, po measured upto 24 hrs by LC-MS/MS analysis; format: ADME, organism-based; conditions: in vivo, read-out: Vdss
[14] = Oral bioavailability in Sprague-Dawley rat at 0.98 mg/kg measured upto 24 hrs by LC-MS/MS analysis; format: ADME, organism-based; conditions: in vivo
[15] = AUC in Sprague-Dawley rat at 0.98 mg/kg, po measured upto 24 hrs by LC-MS/MS analysis; format: ADME, organism-based; parameters: time < 24 hr, dose 0.98 mg/kg, route oral; conditions: in vivo
[16] = Clearance in Sprague-Dawley rat at 0.50 mg/kg, iv or 1.0 mg/kg, po measured upto 24 hrs by LC-MS/MS analysis; format: ADME, organism-based; conditions: in vivo, 0.5 mg/kg
[17] = Half life in Sprague-Dawley rat at 0.50 mg/kg, iv or 1.0 mg/kg, po measured upto 24 hrs by LC-MS/MS analysis; format: ADME, organism-based; conditions: in vivo
[18] = Volume of distribution at steady state in Sprague-Dawley rat at 0.50 mg/kg, iv or 1.0 mg/kg, po measured upto 24 hrs by LC-MS/MS analysis; format: ADME, organism-based; conditions: in vivo, 0.5 mg/kg, read-out: Vdss
[19] = Oral bioavailability in Sprague-Dawley rat at 1.0 mg/kg measured upto 24 hrs by LC-MS/MS analysis; format: ADME, organism-based; conditions: in vivo
[20] = AUC in Sprague-Dawley rat at 1.0 mg/kg, po measured upto 24 hrs by LC-MS/MS analysis; format: ADME, organism-based; parameters: dose 1 mg/kg, time < 24 hr, route oral; conditions: in vivo
[21] = Clearance in Sprague-Dawley rat at 0.31 mg/kg, iv or 0.61 mg/kg, po measured upto 24 hrs by LC-MS/MS analysis; format: ADME, organism-based; conditions: in vivo
[22] = Half life in Sprague-Dawley rat at 0.31 mg/kg, iv or 0.61 mg/kg, po measured upto 24 hrs by LC-MS/MS analysis; format: ADME, organism-based; conditions: in vivo
[23] = Volume of distribution at steady state in Sprague-Dawley rat at 0.31 mg/kg, iv or 0.61 mg/kg, po measured upto 24 hrs by LC-MS/MS analysis; format: ADME, organism-based; conditions: in vivo, read-out: Vdss
[24] = Oral bioavailability in Sprague-Dawley rat at 0.61 mg/kg measured upto 24 hrs by LC-MS/MS analysis; format: ADME, organism-based; conditions: in vivo
[25] = AUC in Sprague-Dawley rat at 0.61 mg/kg, po measured upto 24 hrs by LC-MS/MS analysis; format: ADME, organism-based; parameters: time < 24 hr, dose 0.61 mg/kg, route oral; conditions: in vivo
[26] = Clearance in Sprague-Dawley rat at 0.72 mg/kg, iv or 1.44 mg/kg, po measured upto 24 hrs by LC-MS/MS analysis; format: ADME, organism-based; conditions: in vivo
[27] = Half life in Sprague-Dawley rat at 0.72 mg/kg, iv or 1.44 mg/kg, po measured upto 24 hrs by LC-MS/MS analysis; format: ADME, organism-based; conditions: in vivo
[28] = Volume of distribution at steady state in Sprague-Dawley rat at 0.72 mg/kg, iv or 1.44 mg/kg, po measured upto 24 hrs by LC-MS/MS analysis; format: ADME, organism-based; conditions: in vivo, read-out: Vdss
[29] = Oral bioavailability in Sprague-Dawley rat at 1.44 mg/kg measured upto 24 hrs by LC-MS/MS analysis; format: ADME, organism-based; conditions: in vivo
[30] = AUC in Sprague-Dawley rat at 1.44 mg/kg, po measured upto 24 hrs by LC-MS/MS analysis; format: ADME, organism-based; parameters: time < 24 hr, dose 1.44 mg/kg, route oral; conditions: in vivo

Sequence of Coagulation factor XI (P03951 19-387 limits assumed): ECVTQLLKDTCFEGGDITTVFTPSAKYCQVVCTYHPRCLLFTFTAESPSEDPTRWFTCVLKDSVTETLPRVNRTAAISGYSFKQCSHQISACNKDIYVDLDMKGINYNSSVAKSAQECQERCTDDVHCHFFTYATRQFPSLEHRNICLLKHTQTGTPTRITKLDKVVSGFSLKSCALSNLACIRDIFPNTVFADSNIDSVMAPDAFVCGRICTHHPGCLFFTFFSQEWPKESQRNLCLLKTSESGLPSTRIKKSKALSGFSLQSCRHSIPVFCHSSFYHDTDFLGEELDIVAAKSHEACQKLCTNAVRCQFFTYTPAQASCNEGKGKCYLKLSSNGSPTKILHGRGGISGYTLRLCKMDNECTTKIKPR
Sequence of Coagulation factor XI (P03951 388-625 limits assumed): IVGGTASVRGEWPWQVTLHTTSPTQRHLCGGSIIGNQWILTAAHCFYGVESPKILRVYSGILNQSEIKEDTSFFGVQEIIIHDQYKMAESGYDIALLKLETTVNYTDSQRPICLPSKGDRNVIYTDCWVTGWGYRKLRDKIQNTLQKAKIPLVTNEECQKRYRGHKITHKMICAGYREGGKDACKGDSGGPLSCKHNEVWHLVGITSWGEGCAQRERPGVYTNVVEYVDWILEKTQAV

Compound | Ki (Coagulation factor XI) [nM] | half-life [1] [min] | Papp B→A [2] [×10⁻⁶ cm/s] | Papp A→B [3] [×10⁻⁶ cm/s] | fraction unbound [9] | half-life [10] [min] | EC1.5 (Plasma) [µM] | further results
COC(=O)Nc1ccc2c(c1)C[C@@H](C(=O)OC)CCCC[C@H](NC(=O)/C=C/c1cc(Cl)ccc1-n1cnnn1)c1nc-2c[nH]1 | 24 | 8 | – | – | – | – | 25 | –
COC(=O)C[C@H]1CCCC[C@H](NC(=O)/C=C/c2cc(Cl)ccc2-n2cnnn2)c2nc(c[nH]2)-c2ccc(NC(=O)OC)cc2N1 | 2 | 4 | – | – | – | – | 1.1 | –
COC(=O)Nc1ccc2c(c1)N[C@@H](C(=O)OC)CCCC[C@H](NC(=O)/C=C/c1cc(Cl)ccc1-n1cnnn1)c1nc-2c[nH]1 | 0.46 | 10 | 10.3 | < 1.5 | < 0.002 | 48 | 0.55 | clearance [4]: 3 mL/min/kg; half-life [5]: 108 min; Vd [6]: 0.3 L/kg; bioavailability [7]: 8%; AUC at 24 h [8]: 0.487 µM·h
COC(=O)Nc1ccc2c(c1)N[C@@H](C(=O)O)CCCC[C@H](NC(=O)/C=C/c1cc(Cl)ccc1-n1cnnn1)c1nc-2c[nH]1 | 0.67 | 70 | < 1.5 | < 1.5 | 0.014 | 75 | 0.87 | clearance [11]: 7.7 mL/min/kg; half-life [12]: 60 min; Vd [13]: 0.33 L/kg; bioavailability [14]: 1%; AUC at 24 h [15]: 0.014 µM·h
CCOC(=O)[C@H]1CCCC[C@H](NC(=O)/C=C/c2cc(Cl)ccc2-n2cnnn2)c2cc(ccn2)-c2ccc(NC(=O)OC)cc2N1 | 2.5 | 30 | 10.1 | < 1.5 | 0.008 | 59 | 6.1 | clearance [16]: 4.9 mL/min/kg; half-life [17]: 216 min; Vd [18]: 1.3 L/kg; bioavailability [19]: 41%; AUC at 24 h [20]: 1.29 µM·h
O=C(/C=C/c1cc(Cl)ccc1-n1cnnn1)N[C@H]1CCCCC(=O)Nc2ccccc2-c2c[nH]c1n2 | 48 | 6 | 20.5 | < 1.5 | – | – | >40 | clearance [21]: 53 mL/min/kg; half-life [22]: 30 min; Vd [23]: 1.2 L/kg; bioavailability [24]: < 1%; AUC at 24 h [25]: 0.001 µM·h

The remaining molecules from weak to strong by Ki (Coagulation factor XI), led by results:

Ki (Coagulation factor XI) [nM] | half-life [1] [min] | Papp B→A [2] [×10⁻⁶ cm/s] | Papp A→B [3] [×10⁻⁶ cm/s] | fraction unbound [9] | half-life [10] [min] | Compound | EC1.5 (Plasma) [µM] | further results
53 | 29 | – | – | – | – | COC(=O)Nc1ccc2c(c1)N[C@@H](C(F)(F)F)CC/C=C/C[C@H](NC(=O)/C=C/c1cc(Cl)ccc1-n1cnnn1)c1nc-2c[nH]1 | >40 | –
16 | 95 | – | – | – | – | COC(=O)Nc1ccc2c(c1)N[C@@H](C(F)(F)F)CCCC[C@H](NC(=O)/C=C/c1cc(Cl)ccc1-n1cnnn1)c1cc-2ccn1 | 13 | –
12 | 3 | – | – | – | – | O=C(/C=C/c1cc(Cl)ccc1-n1cnnn1)N[C@H]1C/C=C/CCC(=O)Nc2cc(F)ccc2-c2c[nH]c1n2 | 16 | –
8.3 | 7 | – | – | – | – | COC(=O)Nc1ccc2c(c1)N[C@@H](C)CCCC[C@H](NC(=O)/C=C/c1cc(Cl)ccc1-n1cnnn1)c1nc-2c[nH]1 | 5.2 | –
2.6 | 99 | – | – | – | – | COC(=O)Nc1ccc2c(c1)N[C@@H](C(=O)O)CCCC[C@H](NC(=O)/C=C/c1cc(Cl)ccc1-n1cnnn1)c1cc-2ccn1 | 7.1 | –
1.1 | 54 | – | – | 0.002 | 14 | COC(=O)Nc1ccc2c(c1)N[C@@H](C(F)(F)F)CCCC[C@H](NC(=O)/C=C/c1cc(Cl)ccc1-n1cnnn1)c1nc-2c[nH]1 | 2.6 | clearance [26]: 12 mL/min/kg; half-life [27]: 84 min; Vd [28]: 0.4 L/kg; bioavailability [29]: 9%; AUC at 24 h [30]: 0.307 µM·h
